Laboratory results from PMC3030600, “Characterizing Ligand-Gated Ion Channel Receptors with Genetically Encoded Ca^++ Sensors” (PLoS ONE, 2011).
Like-named read-outs stand apart in the source and are kept apart here.

Legend:
[1] = target: human α7 nicotinic acetylcholine receptors (Homo sapiens, UniProt P36544); assay: cell-based; type: cell-based
α7-nAChR [2] = target: α7-nAChR (Homo sapiens, UniProt P36544); details: read-out: EC50, α7-nAChR (non-CNiFER); potential-sensitive dye, human receptors
α7-nAChR (Homo sapiens, UniProt P36544), sequence (P36544 23-502): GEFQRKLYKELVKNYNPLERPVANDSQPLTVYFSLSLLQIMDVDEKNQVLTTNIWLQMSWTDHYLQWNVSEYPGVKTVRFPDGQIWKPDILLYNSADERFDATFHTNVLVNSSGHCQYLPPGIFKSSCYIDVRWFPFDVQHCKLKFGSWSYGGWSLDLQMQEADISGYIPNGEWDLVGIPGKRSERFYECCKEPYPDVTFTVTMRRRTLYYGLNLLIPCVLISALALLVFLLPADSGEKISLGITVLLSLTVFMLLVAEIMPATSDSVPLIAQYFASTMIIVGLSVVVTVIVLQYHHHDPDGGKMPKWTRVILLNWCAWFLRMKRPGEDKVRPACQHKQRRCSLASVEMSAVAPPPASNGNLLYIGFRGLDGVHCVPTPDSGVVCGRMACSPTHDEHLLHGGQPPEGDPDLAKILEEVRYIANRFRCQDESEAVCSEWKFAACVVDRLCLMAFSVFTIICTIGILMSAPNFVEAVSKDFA

α7/5-HT3A = details: cited from earlier work; for EC50: Ca2+ dye (Fluo-3-AM) on HEK293 cells expressing human receptors, read-out: EC50, α7/5-HT3A (non-CNiFER)
[3] = target: T1, mouse 5-HT3A serotonin receptors (Mus musculus, UniProt P23979); assay: 5-HT3A CNiFER FRET Flex assay; type: cell-based; details: for mode of antagonism / Schild Slope: vs 5-HT; for Schild Slope: in aCSF
T1 sequence (P23979 24-489): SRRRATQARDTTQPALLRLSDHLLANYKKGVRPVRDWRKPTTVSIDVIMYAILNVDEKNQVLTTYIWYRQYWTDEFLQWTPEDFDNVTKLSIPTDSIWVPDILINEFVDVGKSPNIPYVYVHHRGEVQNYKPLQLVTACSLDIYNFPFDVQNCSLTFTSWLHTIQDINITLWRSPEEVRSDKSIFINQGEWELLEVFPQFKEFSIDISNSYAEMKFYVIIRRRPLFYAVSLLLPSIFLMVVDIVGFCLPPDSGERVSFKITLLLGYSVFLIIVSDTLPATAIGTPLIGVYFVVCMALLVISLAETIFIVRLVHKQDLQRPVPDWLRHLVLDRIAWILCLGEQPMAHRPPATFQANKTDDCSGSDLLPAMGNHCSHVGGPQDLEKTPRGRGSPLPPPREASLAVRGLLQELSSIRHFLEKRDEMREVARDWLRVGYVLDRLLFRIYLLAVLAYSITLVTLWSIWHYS
Protocol: Cells were cultured in 10 cm plates with DMEM (Mediatech, Manassas, VA) supplemented with 10% FBS (Gemini Bio-Products, West Sacramento, CA; Atlanta Biologicals, Lawrenceville, GA) and 1% Glutamine (Invitrogen), and incubated at 37°C with 10% CO2. Cells were selected at ∼70% confluency and plated the day before using 100 µl volumes per well into black, transparent flat-bottom, TC treated 96-well plates (Thermo, Waltham, MA; E&K, Greiner Campbell, CA). Plates were removed from the incubator the next day and the media was replaced with 100 µl of artificial cerebral spinal fluid (aCSF) [containing 121 mM NaCl, 2.4 mM Ca^2+, 1.3 mM Mg^2+, 5 mM KCl, 26 mM NaHCO3, 1.2 mM Na2HPO4, 10 mM glucose, 5 mM Hepes Na^+, pH 7.4]. For all assays performed on α7-nAChR CNiFERs 10 µM of the PAM, PNU-120596 (Tocris, Ellisville, MO), was prepared in aCSF. In the case of antagonist measurements, antagonists, at 1.5 times the final desired concentration, were prepared in aCSF. For non-CNiFER cell lines, Blue Membrane Potential dye (Molecular Devices, Sunnyvale, CA) was prepared in aCSF and diluted 2 fold the recommended dilution. Plates were incubated for at least 30 min at 37°C and 10% CO2 for any assay that included antagonist, dye, or PAM modification to the aCSF. Following incubation, plates were removed and placed into the Molecular Devices FlexStation III instrument and run at 37°C. Injection rates varied between […], and 50 µl of the specified agonist prepared at 3x final concentration in the aforementioned aCSF solution was injected after 30 s of baseline measurement. […] All wells were replicated (two or three times) in the same plate. Mean peak FRET ratios calculated from replicates were exported and plotted against agonist concentrations using Graphpad Prism 4 (Carlsbad, CA). A sigmoidal concentration-response (variable slope) regression of the mean peak FRET ratios was fit to generate a concentration-response curve and obtain an EC50 value.
To measure potencies of competitive antagonists, three concentration-response curves with different antagonist concentrations were compared to a control curve (without antagonist). Mean FRET responses generated concentration response curves, and antagonist dependent shifts in EC50 values were used to calculate dose ratios (DR), as a concentration ratio of EC50'/EC50 for the specified agonist (where EC50' is in the presence of the antagonist at the specified concentration). DRs were used to produce a Schild regression plot for analysis of competitive antagonism and generate a Ka value. Analysis consisted of potting Log (DR-1) against –Log [Antagonist]. The Schild Ka value for competitive antagonists was calculated from the x-intercept at y = 0, as the –Log (Ka), [38]. All errors reported are arithmetic standard deviations unless otherwise noted.

α7-nAChR [4] = details: cited from earlier work

human α7 nicotinic acetylcholine receptors, sequence (P36544 23-502): as the sequence (P36544 23-502) above

Clc1ccc(C2CC3CCC2N3)cn1 (racemic) [(±)-Epibatidine, (±)-epibatidine] showed an EC50 ([1]; read-out: EC50, α7-nAChR CNiFER) of 28 nM, an EC50 ([1]; read-out: EC50 of agonist curve) of 3.6 nM and an EC50 (α7-nAChR [2]) of 17 ± 2.6 nM. For the same compound, the EC50 (α7/5-HT3A) was 180 ± 20 nM.

In the case of Cc1nccn1CC1CCc2c(c3ccccc3n2C)C1=O (stereo not shown) [Ondansetron, ondansetron], the Kd ([3]; read-out: CNiFER Ka (Schild)) is reported as 1.6 ± 0.9 nM, the mode of antagonism [3] is reported as “near competitive block” and the “Schild Slope” value [3] is reported as −1.3±0.04. The “Schild Slope” value ([3]; listed as ondansetron) was -1.3±0.04.

In the case of (−)-Nicotine, the EC50 (α7/5-HT3A) is given as 19100 nM.

With NCCc1c[nH]c2ccc(O)cc12 [5-HT, 5-Hydroxytryptamine] the Hill coefficient ([3]; 5-HT3A CNiFER concentration-response (Figure 6A)) was 2.6.

For CN1[C@@H]2CC[C@H]1C[C@@H](OC(=O)c1c[nH]c3ccccc13)C2 [tropisetron], the mode of antagonism [3] was “greater non-competitive component”.

For CCN1C[C@]2(COC(=O)c3ccccc3N3C(=O)C[C@H](C)C3=O)CC[C@H](OC)[C@@]34[C@@H]5C[C@H]6[C@H](OC)[C@@H]5[C@](O)(C[C@@H]6OC)[C@@](O)([C@@H](OC)[C@H]23)[C@@H]14 [MLA, methyllycaconitine], the Kd [1] was 3.2 nM, the “Schild Slope” value [1] was −1.2±0.3 and the “mode of antagonism (Schild analysis)” value [1] was “competitively”. For the same compound, the “half time for dissociation” value (α7-nAChR [4]) was 2.3 min and the IC50 (α7/5-HT3A; read-out: IC50 (non-CNiFER)) was 36 ± 13 nM.
